# Experimental data taken from patent US20040010001A1, “Methods and compositions for modulating cell proliferation and cell death” (priority 1999, published 2004).
# Read-outs that look alike come from different tables or passages of the source.
# Columns and labels:
# Format in all cases: cell-based
# [1] = test system: rat lymph node metastasis cells, monolayers; test: Drug effect in monolayers of rat lymph node metastasis cells (inhibition of bromodeoxyuridine incorporation); conditions: 96 h, read-out: Concentration producing 50% inhibition
# [2] = test system: rat primary tumor cells, monolayers; test: Drug effect in monolayers of rat primary tumor cells (inhibition of bromodeoxyuridine incorporation); conditions: 96 h, read-out: Concentration producing 50% inhibition
# [3] = test system: rat lung metastasis cells, monolayers; test: Drug effect in monolayers of rat lung metastasis cells (inhibition of bromodeoxyuridine incorporation); conditions: 96 h, read-out: Concentration producing 50% inhibition
# [4] = test system: rat primary tumors, histocultures; test: Drug effect in histocultures of rat primary tumors (inhibition of 3H-thymidine incorporation)
# [5] = test system: Human prostate PC3 tumor cells; test: aFGF/bFGF-induced resistance and reversal by suramin, sulforhodamine B assay
# Description: The experimental conditions are described briefly below. […] Cell number was measured using the sulforhodamine B assay which measures the total protein concentration. […] The FGF-induced resistance was dependent on the FGF concentrations, with a higher resistance at higher FGF concentrations.
# Human breast MCF7 = test: FGF-induced resistance, inhibition of BrdU incorporation; conditions: read-out: Drug concentration needed to produce 50% inhibition
# Description: (§1) Prior to drug treatment, cells were incubated for 4 days with tumor CM or with r-aFGF ad/or r-bFGF-containing medium, supplemented with 1% FBS (final protein concentration adjusted to 2 mg/ml). The medium was renewed every other day.
# (§2) The antiproliferative drug effect in histocultures was measured as inhibition of ^3H-thymidine incorporation quantified by autoradiography (Yen, W. C. et al. (1996) Pharm. Res. 13:1305-1312) and, for monolayers, as inhibition of BrdU incorporation or as reduction of total proteins by the sulforhodamine B assay (Au, J. L.-S. et al. (1998) Cancer Res. 58:2141-2148). For the latter, the two assays yielded qualitatively similar results. Cell kill induced by 96-hour drug treatment was monitored by the release of LDH into the culture medium. LDH activity was monitored by the conversion of tetrazolium to formazan (detected at 490 nm).
# (§3) The experimental conditions are described briefly below. Cells were pretreated with human recombinant r-aFGF and/or r-bFGF for 96 hours and then with drugs for 96 hours. For the studies on cells derived from the human prostate, lung, pharynx, colon and breast cancer cells, the drug effect was determined by the inhibition of BrdU incorporation. For the study on the human leukemic cells, the drug effect was measured by the MTT assay, which measures the number of metabolically active cells (Alley, M. C. et al (1988) Cancer Res 48:589-601).
# Human pharynx FaDu = test: as above; conditions: read-out: Drug concentration needed to produce 50% inhibition
# Description: as §1, §2, §3
# Human prostate PC3 = test: as above; conditions: Homo sapiens, read-out: Drug concentration needed to produce 50% inhibition
# Description: as §1, §2, §3
# Rat prostate MAT-LyLu = test: as above; conditions: read-out: Drug concentration needed to produce 50% inhibition
# Description: as §1, §2, §3
# Human lung A459 = test: as above; conditions: read-out: Drug concentration needed to produce 50% inhibition
# Description: as §1, §2, §3
# [6] = test system: Human breast BC19 (subline of MCF7 transfected with mdr1); test: as above; conditions: read-out: Drug concentration needed to produce 50% inhibition
# Description: as §1, §2, §3
# Human colon HT-29 = test: as above; conditions: read-out: Drug concentration needed to produce 50% inhibition
# Description: as §1, §2, §3
# [7] = no suramin, relative to control
# [8] = 96 h, r-aFGF + r-bFGF 0.04 ± 1 ng/ml
# [9] = 96 h, r-aFGF + r-bFGF 0.08 ± 1 ng/ml
# [10] = 96 h, r-aFGF + r-bFGF 0.64 ± 1 ng/ml
# [11] = 96 h, r-aFGF + r-bFGF 1 ± 1 ng/ml
smiles,measurement,setting,value
CC(=O)O[C@H]1C(=O)[C@@]2(C)[C@H]([C@H](OC(=O)c3ccccc3)[C@]3(O)C[C@H](OC(=O)[C@H](O)[C@@H](NC(=O)c4ccccc4)c4ccccc4)C(C)=C1C3(C)C)[C@]1(OC(C)=O)CO[C@@H]1C[C@@H]2O [Paclitaxel],IC50,[1]; Monolayers (passage 0),32.9 ± 3.6 nM
same,IC50,[1]; Monolayers (passage 1),21.8 ± 0.9 nM
same,IC50,[1]; Monolayers (passage 2),15 ± 0.9 nM
same,IC50,[1]; Monolayers (passage 3),11.7 ± 0.3 nM
same,IC50,[2]; Monolayers (passage 0),10.7 ± 0.5 nM
same,IC50,[2]; Monolayers (passage 1),10.5 ± 0.5 nM
same,IC50,[2]; Monolayers (passage 2),10.3 ± 0.8 nM
same,IC50,[2]; Monolayers (passage 3),10 ± 0.2 nM
same,IC50,[3]; Monolayers (passage 0),92.4 ± 6.9 nM
same,IC50,[3]; Monolayers (passage 1),28.1 ± 0.7 nM
same,IC50,[3]; Monolayers (passage 2),21.5 ± 3.7 nM
same,IC50,[3]; Monolayers (passage 3),11.4 ± 0.7 nM
same,inhibition at 10 µM,[4],< 50%
same,IC30 (concentration producing 30% inhibition),"[4]; 24 h, read-out: Concentration producing 50% inhibition (data shown are the concentrations that produced 30% inhibition)",> 14 nM
same,IC50,"[5]; Homo sapiens, read-out: IC50, Control (drug treatment only, without FGF treatment), No suramin, drug 96 hours",2.16 nM
same,IC50,"[5]; Homo sapiens, read-out: IC50, aFGF 0.3 ng/ml + bFGF 1 ng/ml, No suramin, FGF pretreatment 96 hours, drug 96 hours",6.53 nM
same,IC50,"[5]; Homo sapiens, read-out: IC50, aFGF 1 ng/ml + bFGF 3 ng/ml, No suramin, FGF pretreatment 96 hours, drug 96 hours",12.1 nM
same,"Resistance, Folds, aFGF 0.3 ng/ml + bFGF 1 ng/ml",[5]; [7],3.02 Folds
same,"Resistance, Folds, aFGF 1 ng/ml + bFGF 3 ng/ml",[5]; [7],5.59 Folds
same,IC50,"[5]; read-out: IC50, Control (without FGF treatment), Suramin, 15 μM, drug 96 hours with 15 μM suramin",2.13 nM
same,IC50,"[5]; read-out: IC50, aFGF 0.3 ng/ml + bFGF 1 ng/ml, With suramin, FGF pretreatment 96 hours, drug 96 hours with 15 micromolar suramin",1.88 nM
same,IC50,"[5]; read-out: IC50, aFGF 1 ng/ml + bFGF 3 ng/ml, With suramin, FGF pretreatment 96 hours, drug 96 hours with 15 micromolar suramin",2.01 nM
same,IC50,"Human breast MCF7; MCF7, r-bFGF 0 ng/ml",0.32 nM
same,IC50,"Human breast MCF7; MCF7, r-bFGF 0.01 ng/ml",0.45 nM
same,IC50,"Human breast MCF7; MCF7, r-bFGF 0.1 ng/ml",0.84 nM
same,IC50,"Human breast MCF7; MCF7, r-bFGF 1 ng/ml",1.3 nM
same,IC50,"Human pharynx FaDu; 96 h, r-aFGF + r-bFGF 0 ng/ml",0.82 nM
same,IC50,Human pharynx FaDu; [8],0.84 nM
same,IC50,Human pharynx FaDu; [9],0.82 nM
same,IC50,"Human pharynx FaDu; 96 h, r-aFGF + r-bFGF 0.16 ± 1 ng/ml",0.81 nM
same,IC50,"Human pharynx FaDu; 96 h, r-aFGF + r-bFGF 0.32 ± 1 ng/ml",0.84 nM
same,IC50,Human pharynx FaDu; [10],2.01 nM
same,IC50,Human pharynx FaDu; [11],3.5 nM
same,IC50,Human pharynx FaDu; r-aFGF 0 ng/ml,0.82 nM
same,IC50,Human pharynx FaDu; r-aFGF 1 ng/ml,0.8 nM
same,IC50,Human pharynx FaDu; r-aFGF 10 ng/ml,0.82 nM
same,IC50,Human pharynx FaDu; r-aFGF 50 ng/ml,0.83 nM
same,IC50,Human pharynx FaDu; r-bFGF 0 ng/ml,0.77 nM
same,IC50,Human pharynx FaDu; r-bFGF 1 ng/ml,0.79 nM
same,IC50,Human pharynx FaDu; r-bFGF 10 ng/ml,0.74 nM
same,IC50,Human pharynx FaDu; r-bFGF 50 ng/ml,0.82 nM
same,IC50,"Human prostate PC3; 96 h, r-aFGF + r-bFGF 0 ng/ml",1.2 nM
same,IC50,Human prostate PC3; [8],1.2 nM
same,IC50,Human prostate PC3; [9],2.1 nM
same,IC50,Human prostate PC3; [10],5.8 nM
same,IC50,Human prostate PC3; [11],6.9 nM
same,IC50,"Human prostate PC3; 96 h, r-aFGF + r-bFGF",3.1 nM
same,IC50,Human prostate PC3; r-aFGF 0 ng/ml,1.2 nM
same,IC50,Human prostate PC3; r-aFGF 1 ng/ml,1.2 nM
same,IC50,Human prostate PC3; r-aFGF 10 ng/ml,1.1 nM
same,IC50,Human prostate PC3; r-aFGF 50 ng/ml,1.2 nM
same,IC50,Human prostate PC3; r-bFGF 0 ng/ml,1.2 nM
same,IC50,Human prostate PC3; r-bFGF 1 ng/ml,1.2 nM
same,IC50,Human prostate PC3; r-bFGF 10 ng/ml,2.1 nM
same,IC50,Human prostate PC3; r-bFGF 50 ng/ml,3.3 nM
same,IC50,Rat prostate MAT-LyLu; r-bFGF 0 ng/ml,12.7 nM
same,IC50,Rat prostate MAT-LyLu; r-bFGF 1 ng/ml,16.3 nM
same,IC50,Rat prostate MAT-LyLu; r-bFGF 10 ng/ml,47.8 nM
same,IC50,Rat prostate MAT-LyLu; r-bFGF 50 ng/ml,214 nM
same,IC50,"Human lung A459; A459, r-bFGF 0 ng/ml",0.87 nM
same,IC50,"Human lung A459; A459, r-bFGF 1 ng/ml",0.9 nM
same,IC50,"Human lung A459; A459, r-bFGF 10 ng/ml",1.07 nM
same,IC50,"Human lung A459; A459, r-bFGF 50 ng/ml",1.22 nM
same,IC50,[6]; r-bFGF 0 ng/ml,59.6 nM
same,IC50,[6]; r-bFGF 0.01 ng/ml,112 nM
same,IC50,[6]; r-bFGF 0.1 ng/ml,183 nM
same,IC50,[6]; r-bFGF 1 ng/ml,236 nM
same,IC50,"Human colon HT-29; HT-29, 96 h, r-aFGF + r-bFGF 0 ng/ml",2.2 nM
same,IC50,"Human colon HT-29; HT-29, 96 h, r-aFGF + r-bFGF 0.04 ± 1 ng/ml",2 nM
same,IC50,"Human colon HT-29; HT-29, 96 h, r-aFGF + r-bFGF 0.08 ± 1 ng/ml",2 nM
same,IC50,"Human colon HT-29; HT-29, 96 h, r-aFGF + r-bFGF 0.16 ± 1 ng/ml",2.1 nM
same,IC50,"Human colon HT-29; HT-29, 96 h, r-aFGF + r-bFGF 0.64 ± 1 ng/ml",6.2 nM
same,IC50,"Human colon HT-29; HT-29, r-aFGF 0 ng/ml",2.1 nM
same,IC50,"Human colon HT-29; HT-29, r-aFGF 1 ng/ml",2 nM
same,IC50,"Human colon HT-29; HT-29, r-aFGF 10 ng/ml",1.9 nM
same,IC50,"Human colon HT-29; HT-29, r-aFGF 50 ng/ml",2 nM
same,IC50,"Human colon HT-29; HT-29, r-aFGF + r-bFGF 1 ± 1 ng/ml",10.8 nM
same,IC50,"Human colon HT-29; HT-29, r-bFGF 0 ng/ml",2.1 nM
same,IC50,"Human colon HT-29; HT-29, r-bFGF 1 ng/ml",2 nM
same,IC50,"Human colon HT-29; HT-29, r-bFGF 10 ng/ml",1.9 nM
same,IC50,"Human colon HT-29; HT-29, r-bFGF 50 ng/ml",2 nM
